Converted amounts (≈) assume the structure as drawn.

Holding throughout (assay type): functional
One experiment has as its system Helicobacter pylori. Nature of the experiment: In vitro minimum inhibitory concentration against growth of Helicobacter pylori ATCC 43504.
In experiment [1] the test system is Gerbillinae. Description: The ratio of the number of Mongolian gerbils in which Helicobacter pylori was not detected to that of Mongolian gerbils tested (percent) was represented as clearance rate at 0.3 mg/kg dose.
Experiment [2] deals with Gerbillinae. Nature of the experiment: The ratio of the number of Mongolian gerbils in which Helicobacter pylori was not detected to that of Mongolian gerbils tested (percent) was represented as clearance rate at 1 mg/kg dose.
Experiment [3] deals with Gerbillinae. Description: The ratio of the number of Mongolian gerbils in which Helicobacter pylori was not detected to that of Mongolian gerbils tested (percent) was represented as clearance rate.
Experiment [4] deals with Gerbillinae. Description: The ratio of the number of Mongolian gerbils in which Helicobacter pylori was not detected to that of Mongolian gerbils tested (percent) was represented as clearance rate at 10 mg/kg dose.
Experiment [5] has as its system Gerbillinae. Description: The ratio of the number of Mongolian gerbils in which Helicobacter pylori was not detected to that of Mongolian gerbils tested (percent) was represented as clearance rate at 30 mg/kg dose.
Experiment [6] relates to Gerbillinae. Nature of the experiment: The ratio of the number of Mongolian gerbils in which Helicobacter pylori was not detected to that of Mongolian gerbils tested (percent) was represented as clearance rate at 3 mg/kg dose.

In turn, `COc1c(N2CCO[C@H](CN(C)C)C2)c(F)cc2c(=O)c(C(=O)O)cn(C3CC3)c12` came in with an MIC with Helicobacter pylori of 0.39 µg/mL (≈ 0.93 µM). Take `COc1c(N2CCO[C@@H](CN(C)C)C2)c(F)cc2c(=O)c(C(=O)O)cn(C3CC3)c12`: the Ratio was determined as 0% in the experiment with Gerbillinae [1] and 100% in the experiment with Gerbillinae [2]. Moreover, in the experiment on Helicobacter pylori, 0.012 µg/mL (≈ 0.0286 µM) was the least that counted as inhibitory (MIC).

In the experiment on Helicobacter pylori, `CNCC1CN(c2c(F)cc3c(=O)c(C(=O)O)cn(C4CC4)c3c2F)CCO1` (configuration not stated) displayed an MIC of 0.05 µg/mL (≈ 0.127 µM).

In the case of `CCNCC1CN(c2c(F)cc3c(=O)c(C(=O)O)cn(C4CC4)c3c2F)CCO1` (configuration not stated), 0.05 µg/mL (≈ 0.123 µM) was the least that counted as inhibitory with Helicobacter pylori (MIC). For `NCCC1CN(c2c(F)cc3c(=O)c(C(=O)O)cn(C4CC4)c3c2F)CCO1` (configuration not stated), in the experiment with Helicobacter pylori, it took 0.2 µg/mL (≈ 0.508 µM) to inhibit growth (MIC). `NCC1CN(c2c(F)cc3c(=O)c(C(=O)O)cn(C4CC4)c3c2F)CCO1` (configuration not stated): the Ratio in the experiment with Gerbillinae [3] is reported as 80%. This compound also had an MIC with Helicobacter pylori of 0.05 µg/mL (≈ 0.132 µM). As for `CN(C)CC1CN(c2c(F)cc3c(=O)c(C(=O)O)cn(C4CC4)c3c2F)CCO1` (configuration not stated), the lowest concentration to inhibit growth against Helicobacter pylori (MIC) was 0.025 µg/mL (≈ 0.0614 µM). The compound `CC(=O)NCC1CN(c2c(F)cc3c(=O)c(C(=O)O)cn(C4CC4)c3c2F)CCO1` (configuration not stated) came in with an MIC against Helicobacter pylori of 0.78 µg/mL (≈ 1.85 µM). Turning to `CN(C)CC1CN(c2c(F)cc3c(=O)c(C(=O)O)cn(C4CC4)c3c2Cl)CCO1` (configuration not stated), in the experiment with Helicobacter pylori, the MIC is 0.05 µg/mL (≈ 0.118 µM).

In the experiment with Helicobacter pylori, `COc1c(N2CCOC(CN(C)C)C2)c(F)cc2c(=O)c(C(=O)O)cn(C3CC3)c12` (configuration not stated) showed an MIC of 0.025 µg/mL (≈ 0.0596 µM).

Take `CCCNCC1CN(c2c(F)cc3c(=O)c(C(=O)O)cn(C4CC4)c3c2F)CCO1` (configuration not stated): in the experiment on Helicobacter pylori, the MIC came to 0.39 µg/mL (≈ 0.925 µM). Same read-out and setting: under `CCN(CC)CC1CN(c2c(F)cc3c(=O)c(C(=O)O)cn(C4CC4)c3c2F)CCO1` (configuration not stated) stands 0.2 µg/mL (≈ 0.459 µM); under `CN(C)CC1CN(c2cc3c(cc2F)c(=O)c(C(=O)O)cn3C2CC2)CCO1` (configuration not stated), 0.1 µg/mL (≈ 0.257 µM). `CC1(C)S[C@@H]2[C@H](NC(=O)[C@H](N)c3ccc(O)cc3)C(=O)N2[C@H]1C(=O)O` [AMOXICILLIN]: the lowest concentration to inhibit growth in the experiment with Helicobacter pylori (MIC) was 0.025 µg/mL (≈ 0.0684 µM). On to `CC[C@H]1OC(=O)[C@H](C)[C@@H](O[C@H]2C[C@@](C)(OC)[C@@H](O)[C@H](C)O2)[C@H](C)[C@@H](O[C@@H]2O[C@H](C)C[C@H](N(C)C)[C@H]2O)[C@](C)(OC)C[C@@H](C)C(=O)[C@H](C)[C@@H](O)[C@]1(C)O` [CLARITHROMYCIN], for which the Ratio with Gerbillinae [4] was 0%; in the experiment with Gerbillinae [5], 100%. The same compound came in with an MIC with Helicobacter pylori of 0.025 µg/mL (≈ 0.0334 µM). Turning to `C[C@H]1COc2c(N3CCN(C)CC3)c(F)cc3c(=O)c(C(=O)O)cn1c23.C[C@H]1COc2c(N3CCN(C)CC3)c(F)cc3c(=O)c(C(=O)O)cn1c23.O` [LEVOFLOXACIN], the Ratio in the experiment with Gerbillinae [4] came to 60%; in the experiment on Gerbillinae [6] it was 0%. The MIC against Helicobacter pylori stood at 0.2 µg/mL. On to `C[C@@H]1CN(c2c(F)c(N)c3c(=O)c(C(=O)O)cn(C4CC4)c3c2F)C[C@H](C)N1` [SPARFLOXACIN], for which the Ratio with Gerbillinae [3] was found to be 0%. Besides, in the experiment with Helicobacter pylori, the MIC is 0.2 µg/mL (≈ 0.51 µM). For `NC1CCN(c2nc3c(cc2F)c(=O)c(C(=O)O)cn3-c2ccc(F)cc2F)C1` (configuration not stated) [TOSUFLOXACIN] the same measures were 0% and 0.39 µg/mL (≈ 0.965 µM).

By MIC is commonly meant the lowest concentration found to suppress growth.

These data come from ChEMBL document CHEMBL1130931, “Synthesis and structure-activity relationships of 7-(2-aminoalkyl)morpholinoquinolones as anti-Helicobacter pylori agents” (1998).
